Drawing on PubChem BioAssay (NCI), this text covers GI50 and TGI for eight compounds.

Where “and” joins values, the source holds several entries; their conditions need not be identical. Identical values can stand only once.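 Interpolation was linear, between the two tested concentrations surrounding the appropriate level; five concentrations were tested over 48 hours in 96-well plates. Here, GI50 denotes the concentration required for 50% inhibition of growth. TGI: concentration producing complete growth inhibition.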 A value given as a limit tells only on which side of the number the result lay.

Test systems include 786-0 renal; MOLT-4 leukemia; PC-3 prostate; HOP-62 NSCLC; NCI-H522 lung; MDA-MB-231 breast; MDA-MB-435; OVCAR-5 ovarian; SK-MEL-28 melanoma; OVCAR-3 ovarian.
Assay in all cases: growth of human tumour cells (NCI), 48 h

For `CC1OC(CC(=O)O)Cc2c1c(O)c1c(O)cc(-c3cc(=O)c4c(=O)c5c(c(=O)c=4c3=O)CC(CC(=O)O)OC5C)c(O)c1c2O` (configuration not stated), the GI50 in the assay on 786-0 renal was 32.1 µM; with HOP-62 NSCLC, 71 µM; in the assay on NCI-H522 lung, 17.8 µM; in the assay with MDA-MB-231 breast, 29.4 µM; with MDA-MB-435, 16.8 µM; in the assay on OVCAR-5 ovarian, 53.1 µM. Moreover, the figures for the GI50 in the assay on SK-MEL-28 melanoma and in the assay on OVCAR-3 ovarian were 79.5 µM and 37 µM, respectively. In addition, the TGI is 46.7 µM with 786-0 renal; 21.7 µM in the assay with MOLT-4 leukemia; 64.3 µM in the assay on PC-3 prostate; greater than 100 µM in the assay on HOP-62 NSCLC; 18.9 µM and 64.7 µM in the assay on NCI-H522 lung; 64.9 µM in the assay with MDA-MB-231 breast. Also, the TGI in the assay with MDA-MB-435 was 36.7 µM; with OVCAR-5 ovarian it was greater than 91.1 µM; with SK-MEL-28 melanoma, 29.5 µM; in the assay on OVCAR-3 ovarian, greater than 58.6 µM.
For the compound `O=C1c2ccccc2C(=O)c2c1oc1c2c(=O)[nH]c2ccc(Cl)cc21`, the GI50 in the assay with 786-0 renal is 0.223 µM; with MOLT-4 leukemia, 0.435 µM; in the assay on PC-3 prostate, 0.182 µM; with HOP-62 NSCLC it was 0.202 µM; with NCI-H522 lung it was 0.318 µM; with MDA-MB-231 breast it was 0.165 µM. The GI50 in the assay on MDA-MB-435 was 0.297 µM; in the assay with OVCAR-5 ovarian, 3.44 µM; with SK-MEL-28 melanoma, 0.339 µM; with OVCAR-3 ovarian it was 0.239 µM. The TGI came out at 0.543 µM in the assay with 786-0 renal; 3.14 µM with MOLT-4 leukemia; 0.46 µM with PC-3 prostate; 0.643 µM in the assay with HOP-62 NSCLC; 1.4 µM with NCI-H522 lung; 0.519 µM in the assay with MDA-MB-231 breast. Further, the TGI in the assay on MDA-MB-435 is 1.19 µM; in the assay with OVCAR-5 ovarian, 14.7 µM; in the assay on SK-MEL-28 melanoma, 1.23 µM; in the assay on OVCAR-3 ovarian, 0.557 µM.
Regarding `CC[C@]12C=CCN3CC[C@@]4(c5ccc(OC)cc5N(C)[C@H]4[C@@](O)(C(=O)OC)[C@@H]1OC(=O)CCC(=O)O[C@H]1CC[C@H]4[C@@H]5CC[C@H]6CC(=O)CC[C@]6(C)[C@H]5CC[C@]14C)[C@@H]32`, the GI50 was 1.97 µM with 786-0 renal; 2.59 µM with MOLT-4 leukemia; 0.703 µM in the assay on PC-3 prostate; 4.83 µM in the assay on HOP-62 NSCLC; 2.85 µM in the assay with NCI-H522 lung; 3.03 µM with MDA-MB-231 breast. The GI50 with MDA-MB-435 was 2.89 µM; in the assay on OVCAR-5 ovarian it was 2.69 µM; in the assay with SK-MEL-28 melanoma it was 3.27 µM; in the assay on OVCAR-3 ovarian it was 3.05 µM. Besides, the TGI in the assay with 786-0 renal is greater than 100 µM; with MOLT-4 leukemia, greater than 100 µM; with PC-3 prostate, greater than 100 µM; with HOP-62 NSCLC, greater than 100 µM; in the assay on NCI-H522 lung it was 27 µM; in the assay with MDA-MB-231 breast, 11.3 µM. The TGI in the assay with MDA-MB-435, in the assay on OVCAR-5 ovarian, in the assay with SK-MEL-28 melanoma and in the assay with OVCAR-3 ovarian was greater than 100 µM each time.
Consider `S=C1SCN(Cc2ccccc2)CN1Cc1ccccc1`, for which the GI50 is 7.63 µM in the assay with 786-0 renal; 1.44 µM with MOLT-4 leukemia; 3.36 µM in the assay on PC-3 prostate; 55.6 µM in the assay on HOP-62 NSCLC; 3.83 µM with NCI-H522 lung; 3.04 µM with MDA-MB-231 breast. Moreover, the GI50 in the assay with MDA-MB-435 was 2.35 µM; with OVCAR-5 ovarian it was 25.7 µM; with SK-MEL-28 melanoma, 5.27 µM; in the assay with OVCAR-3 ovarian, 2.49 µM. Moreover, the TGI is 23.1 µM in the assay on 786-0 renal; 5.14 µM with MOLT-4 leukemia; 15.6 µM with PC-3 prostate; greater than 100 µM with HOP-62 NSCLC; 10 µM with NCI-H522 lung; 10.1 µM with MDA-MB-231 breast. Moreover, the TGI with MDA-MB-435 is 7.16 µM; in the assay with OVCAR-5 ovarian, greater than 60.5 µM; in the assay with SK-MEL-28 melanoma, 17.9 µM; with OVCAR-3 ovarian, 9.09 µM.
With `CCOC(=O)Nc1ccc2c(c1)C(=O)N(CC)c1ccccc1O2`, the GI50 in the assay on 786-0 renal was 0.434 µM; in the assay with MOLT-4 leukemia, 0.125 µM; in the assay with PC-3 prostate it was 0.121 µM; with HOP-62 NSCLC it was 0.128 µM; in the assay with NCI-H522 lung, 0.0797 µM; with MDA-MB-231 breast it was 0.4 µM. Moreover, the GI50 with MDA-MB-435 is 0.0311 µM; with SK-MEL-28 melanoma, 12.5 µM; with OVCAR-3 ovarian, 0.0788 µM. Besides, the TGI in the assay on 786-0 renal is greater than 100 µM; in the assay with MOLT-4 leukemia, greater than 100 µM; with PC-3 prostate, greater than 100 µM; with HOP-62 NSCLC, greater than 100 µM; with NCI-H522 lung, 1.09 µM; in the assay with MDA-MB-231 breast it was greater than 100 µM. For the same compound, the TGI in the assay on MDA-MB-435 was 0.11 µM; with OVCAR-5 ovarian, greater than 100 µM; in the assay with SK-MEL-28 melanoma, greater than 100 µM; with OVCAR-3 ovarian, 0.612 µM.
Consider `O=C(Nc1cn[nH]c1-c1nc2ccc(CN3CCOCC3)cc2[nH]1)NC1CC1`, for which the GI50 with 786-0 renal was 1.06 µM and 1.67 µM; in the assay on MOLT-4 leukemia, 1.87 µM and 2.52 µM; in the assay with PC-3 prostate it was 0.957 µM and 4.29 µM; in the assay on HOP-62 NSCLC, 0.721 µM and 1.93 µM; in the assay on NCI-H522 lung it was 0.563 µM and 1.18 µM; in the assay with MDA-MB-231 breast, 1.18 µM and 1.48 µM. In addition, the GI50 with MDA-MB-435 is 1.43 µM and 6.77 µM; in the assay with OVCAR-5 ovarian, 2.78 µM and 6.68 µM; in the assay with SK-MEL-28 melanoma it was 1.79 µM and > 10 µM; in the assay on OVCAR-3 ovarian, 0.306 µM and 1.32 µM. Also, the TGI in the assay on 786-0 renal was 7.68 µM and > 10 µM; with MOLT-4 leukemia it was 5.4 µM and > 10 µM; with PC-3 prostate it was 36.2 µM and > 10 µM; in the assay on HOP-62 NSCLC it was 4.01 µM and > 10 µM; in the assay with NCI-H522 lung, 3.43 µM and > 10 µM; with MDA-MB-231 breast it was 10.3 µM and > 10 µM. In addition, the TGI in the assay on MDA-MB-435 was 5 µM and > 10 µM; in the assay on OVCAR-5 ovarian, 9.49 µM and > 10 µM; in the assay with SK-MEL-28 melanoma it was 5.7 µM and > 10 µM; in the assay with OVCAR-3 ovarian, 6.3 µM and 6.7 µM.
For the compound `O=C(c1ccc2ccccc2c1)c1c(C(F)(F)F)n([O-])c2cc(C(F)(F)F)ccc2[n+]1=O`, the GI50 in the assay with 786-0 renal is 1.62 µM; with MOLT-4 leukemia it was 1.49 µM; with PC-3 prostate, 1.34 µM; in the assay with HOP-62 NSCLC, 1.92 µM; with NCI-H522 lung, 1.55 µM; in the assay on MDA-MB-231 breast, 1.7 µM. The GI50 with MDA-MB-435 was 1.71 µM; with OVCAR-5 ovarian, 2.03 µM; in the assay with SK-MEL-28 melanoma, 1.74 µM; in the assay on OVCAR-3 ovarian, 1.48 µM. In addition, the TGI came to 3.15 µM in the assay with 786-0 renal; 3.9 µM in the assay on MOLT-4 leukemia; 2.75 µM with PC-3 prostate; 3.72 µM with HOP-62 NSCLC; 3.09 µM in the assay on NCI-H522 lung; 3.25 µM in the assay on MDA-MB-231 breast. Further, the TGI was 3.31 µM with MDA-MB-435, 4.79 µM with OVCAR-5 ovarian, 3.38 µM in the assay with SK-MEL-28 melanoma and 2.97 µM with OVCAR-3 ovarian.
Take `CCc1cccc(NC(=O)Nc2ccc(Oc3ccc4nc(NC(=O)OC)[nH]c4c3)cc2)c1`: the GI50 is 7 µM in the assay with 786-0 renal; 10.4 µM in the assay with MOLT-4 leukemia; 4.9 µM with PC-3 prostate; 3.1 µM in the assay with HOP-62 NSCLC; 0.921 µM in the assay on NCI-H522 lung; 7.76 µM in the assay with MDA-MB-231 breast. Also, the GI50 in the assay on MDA-MB-435 is 0.0716 µM; in the assay with OVCAR-5 ovarian, 15 µM; with SK-MEL-28 melanoma it was 3.52 µM; in the assay on OVCAR-3 ovarian it was 3.65 µM. For the same compound, the TGI in the assay on 786-0 renal was greater than 25 µM; with MOLT-4 leukemia, greater than 25 µM; in the assay with PC-3 prostate, 19.6 µM; in the assay on HOP-62 NSCLC, 11 µM; in the assay on NCI-H522 lung, 14.8 µM; with MDA-MB-231 breast, greater than 25 µM. Also, the TGI in the assay with MDA-MB-435 was 0.643 µM; with OVCAR-5 ovarian, greater than 25 µM; in the assay on SK-MEL-28 melanoma, 9.49 µM; in the assay on OVCAR-3 ovarian it was 10 µM.
